In patent US7091238B1, “Thienylhydrazon with digitalis-like properties (positive inotropic effects)” (University of Maryland, priority 1999, dated 2006):

Columns and labels:
rat thoracic aorta = conditions: reported by Delpy and Gouville (1996); cited from earlier work
[1] = test system: neuromuscular transmission; assay: Contractions of gastrocnemius muscle induced by stimulation of the sciatic nerve; assay type: in vivo; conditions: rat gastrocnemius
Description: FIG. 30. Records of contractions induced by stimulation of the sciatic nerve of equilibrated rat gastrocnemius muscles and of arterial pressure. In control, contractions were induced by intravenous injection of DMSO ([…]). LASSBio-294 was administered in DMSO. Calibration: Horizontal, 1 cm=24 s; Vertical 2 g=100 mm Hg.
FIG. 31. Records of contractions of rat gastrocnemius muscles induced by stimulation of the sciatic nerve and of arterial pressure. For control, contraction was induced by intravenous injection of […] (0.04 ml). LASSBio-294 was administered in DMSO.

Row | Compound | relaxant effect after removal of endothelium (rat thoracic aorta) | depression of muscle contraction (test of functionality of the model) [1]
1 | CCCOc1ccc(NS(C)(=O)=O)cc1-c1nc2c(c(C)nn2C)c(=O)[nH]1 [DMPPO] | lost its effect | 
2 | C=CC[N@@+]12CC[C@@]34c5ccccc5N5/C=C6/[C@H]7C[C@H]8[C@@]9(CC[N@@+]8(CC=C)C/C7=C/CO)c7ccccc7N(/C=C(/[C@@H](C[C@@H]31)/C(=C\CO)C2)[C@H]54)[C@@H]69.[Cl-].[Cl-] [alloferine, reference compound] |  | depression of muscle contraction
